In ChEMBL document CHEMBL1122919, “Substituted 2-pyrones, 2-pyridones, and other congeners of elasnin as potential agents for the treatment of chronic obstructive lung diseases” (J Med Chem, 1985):

Columns and labels:
Neutrophil elastase [1] = biological target: T1, Neutrophil elastase (Homo sapiens, UniProt P08246); test: Inhibitory activity was evaluated against human leukocyte elastase; Inactive
T1 sequence (P08246 whole entry): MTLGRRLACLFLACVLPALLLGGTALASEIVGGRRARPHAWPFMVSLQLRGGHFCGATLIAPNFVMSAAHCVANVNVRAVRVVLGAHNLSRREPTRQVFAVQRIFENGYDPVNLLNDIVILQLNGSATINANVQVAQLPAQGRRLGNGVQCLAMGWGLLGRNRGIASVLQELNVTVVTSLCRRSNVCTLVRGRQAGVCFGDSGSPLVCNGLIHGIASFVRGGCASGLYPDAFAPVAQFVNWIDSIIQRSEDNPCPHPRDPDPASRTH

Neutrophil elastase [2] = biological target: T1, Neutrophil elastase; test: Inhibitory activity was evaluated against human leukocyte elastase

| IC50 (Neutrophil elastase [1]) | IC50 (Neutrophil elastase [2]) [µM] | SMILES |
| --- | --- | --- |
| Not Active | – | CCCC(=O)c1c(O)cc(C)oc1=O |
| Not Active | – | CCCCCc1cc(O)cc(=O)o1 |
| Not Active | – | CCCCCC(=O)c1c(O)cc(C)oc1=O |
| Not Active | – | CCCc1cc(O)cc(=O)o1 |
| Not Active | – | CCCCCCCc1cc(O)cc(O)n1 |
| Not Active | – | CCCCCCCc1cc(O)cc(=O)o1 |
| – | 26.8 | CCCCCCCCCCCC(=O)c1c(O)cc(C)oc1=O |
| – | 153 | CCCCCCCCCCCc1cc(O)cc(=O)[nH]1 |
| – | 3150 | CCCCCCCCCCCc1cc(O)cc(=O)o1 |
| – | 35.8 | CCCCCCCCCCCCCCCC(=O)c1c(O)cc(C)oc1=O |
| Not Active | – | CCCCc1cc(O)cc(=O)o1 |
| – | 1620 | CCCCCCC(CCCC)c1cc(O)cc(=O)o1 (stereo not drawn) |
| Not Active | – | CCC(=O)c1c(O)cc(C)oc1=O |
